Laboratory results from the NIST ThermoML archive (doi:10.1021/je800998u).

Assay: molar heat capacity at constant pressure
Settings: 101.33 kPa, Crystal 2, Small (less than 1 g) adiabatic calorimetry

CC(C)COCC(C)C [diisobutyl ether]
Settings | molar heat capacity at constant pressure [J/K/mol]
8.82 K | 1.718
9.09 K | 1.873
9.35 K | 2.044
9.61 K | 2.275
9.86 K | 2.429
10 K | 2.519
10.18 K | 2.65
10.58 K | 2.937
10.96 K | 3.313
11.34 K | 3.685
11.75 K | 4.078
12.13 K | 4.434
12.5 K | 4.803
12.88 K | 5.199
13.25 K | 5.584
13.61 K | 6.04
13.98 K | 6.505
14.34 K | 6.941
14.71 K | 7.42
15 K | 7.709
15.07 K | 7.816
15.44 K | 8.198
15.8 K | 8.608
16.15 K | 9.109
16.51 K | 9.706
16.86 K | 10.12
17.21 K | 10.68
17.57 K | 11.14
17.92 K | 11.79
18.28 K | 12.13
18.63 K | 12.7
18.98 K | 13.24
19.33 K | 13.71
19.68 K | 14.26
20 K | 14.73
20.03 K | 14.7
20.68 K | 15.81
21.44 K | 17.01
22.21 K | 18.14
22.97 K | 19.36
23.73 K | 20.47
24.49 K | 21.77
25 K | 22.61
25.25 K | 22.85
26 K | 24.23
26.76 K | 25.53
27.53 K | 26.72
28.29 K | 27.81
29.04 K | 29.05
29.8 K | 30
30 K | 30.39
30.56 K | 31.03
31.31 K | 32.45
32.07 K | 33.45
32.84 K | 34.56
33.59 K | 35.68
34.35 K | 36.74
35 K | 37.65
35.1 K | 37.87
35.86 K | 38.82
36.61 K | 39.8
37.36 K | 40.72
38.11 K | 42.01
38.86 K | 43.03
39.62 K | 44.08
40 K | 44.52
40.37 K | 45.1
41.12 K | 46.17
41.87 K | 47.05
42.62 K | 47.91
43.37 K | 48.99
44.12 K | 49.85
44.88 K | 50.69
45 K | 51.04
45.63 K | 51.79
46.38 K | 52.94
47.13 K | 53.72
47.88 K | 54.52
48.63 K | 55.63
49.38 K | 56.47
50 K | 57.22
50.12 K | 57.39
50.87 K | 58.27
51.62 K | 59.17
52.36 K | 60.07
53.11 K | 61.06
53.85 K | 62.18
54.6 K | 63.09
55 K | 63.54
55.34 K | 63.95
56.09 K | 64.95
56.83 K | 66.04
57.57 K | 67.47
59.06 K | 68.36
59.81 K | 69.16
60 K | 69.69
60.55 K | 69.92
61.29 K | 71.03
62.03 K | 72.13
62.77 K | 72.85
63.51 K | 73.59
64.25 K | 74.59
64.99 K | 75.44
65 K | 75.34
65.73 K | 76.13
66.47 K | 76.73
67.21 K | 77.8
67.95 K | 78.53
68.69 K | 79.4
69.43 K | 79.64
70 K | 80.28
70.16 K | 80.5
71.06 K | 80.99
72.11 K | 81.81
73.16 K | 83.2
74.21 K | 84.22
75 K | 84.76
75.26 K | 84.92
76.31 K | 85.85
77.36 K | 86.85
77.99 K | 88.21
78.41 K | 87.75
79.13 K | 89.1
79.45 K | 89.04
80 K | 89.65
80.18 K | 90.02
80.5 K | 89.99
81.22 K | 91.36
81.55 K | 90.95
82.26 K | 92.28
82.59 K | 92.15
83.3 K | 92.88
83.63 K | 93.23
84.34 K | 93.83
84.68 K | 93.86
85 K | 94.92
85.37 K | 94.92
85.72 K | 96.14
86.41 K | 96.9
87.44 K | 97.86
88.48 K | 98.97
89.51 K | 100
90 K | 100.3
90.55 K | 101.18
91.58 K | 101.87
92.61 K | 102.82
93.65 K | 104.36
94.68 K | 104.93
95 K | 105.3
95.71 K | 105.7
96.75 K | 106.52
97.78 K | 107.57
98.81 K | 108.62
99.84 K | 109.08
100 K | 109.7
100.86 K | 110.59
101.89 K | 111.96
102.92 K | 112.24
103.95 K | 113.24
104.98 K | 114.44
106.01 K | 115.08
107.04 K | 116.13
108.06 K | 116.43
109.09 K | 117.54
110 K | 118.6
110.11 K | 118.56
111.14 K | 119.31
112.16 K | 120.35
113.18 K | 121.34
114.21 K | 122.79
115.23 K | 123.92
116.25 K | 124.47
117.27 K | 125.86
118.29 K | 126.81
119.32 K | 127.51
120 K | 128
120.34 K | 128.32
121.36 K | 129.04
122.38 K | 130.15
123.4 K | 131.15
124.42 K | 131.86
125.44 K | 132.59
126.46 K | 133.8
127.47 K | 134.67
128.49 K | 135.82
129.51 K | 137.05
130 K | 137.1
130.53 K | 137.63
131.54 K | 138.57
132.56 K | 139.45
133.57 K | 140.23
134.59 K | 141.56
135.6 K | 142.61
136.62 K | 143.17
137.63 K | 144.11
138.64 K | 145.82
139.66 K | 146.49
140 K | 147
